In patent US12297438B2, “Gene expression elements and systems and use thereof” (GENENEER LTD., priority 2019, dated 2025):
Counter-ions that a name gives are not always drawn.

Tests used:
[1] = test system: transgenic poplar trees with ECE in the CCR gene; assay: Lignin content in transgenic poplar carrying ECE-CCR; format: in vivo, Populus tremula×Populus alba; details: transgenic trees upon completion of BENZ treatment cycle
From the text: Populus trichocarpa cv. Trichobel CCR cDNA (Accession No. AJ224986) is cloned in to pTA vector using standard PCR reaction. ECE assembled by Gibson in to the middle CCR gene by introducing artificial intron. The resulted sequence is cloned under a tandem repeat of the CaMV 35S constitutive promoter and is transferred into the binary vector pBIG-HYG conferring resistance to hygromycin. Binary vector is transferred into Agrobacterium strain LB4404.
Poplar (Populus tremula×Populus alba) plants are transformed by Agrobacterium as described (Leplé et al. 1992, Plant Cell Rep. 11:137-141.) Transformants are selected by hygromycin resistance. Transformation is confirmed by molecular analysis of the insertions.
Four-to-five-month old greenhouse-grown trees are sprayed daily with 100 μM BENZ during a period of 6 months. […]
RT-PCR analysis of CCR is performed at different stages of the growth and development of the trees. […] Quantification of cDNA molecules is performed in five replicates by qPCR machine.
Lignin content is analyzed in samples from different stages of the growth and development of the trees according to Dence, 1992 (Lignin determination. In: Dence C, Lin S, editors. Methods in Lignin Chemistry. Berlin: Springer-Verlag; 1992. pp. 33-61). […] Lignin is then extracted with CH2Cl2, dried over Na2SO4, evaporated under reduced pressure at 40° C., re-dissolved in 1 mL of CH2Cl2 and analyzed by GC-MS

[2] = test system: SBEIIb with ECE in transgenic rice; assay: SBEIIb expression and starch content in transgenic rice carrying ECE-SBEIIb; format: in vivo, rice (Nipponbare); details: rice grains 10 days post anthesis, activated by BENZ
From the text: High levels of the starch branching IIb gene in rice (SBEIIb, GQ150904.1) are typically linked to lower amylose content. Downregulating the activity of SBEIIb can lead to rice seeds with higher amylose content. The SBEIIb coding sequence is cloned from Nipponbare cDNA into pTA vector using the standard PCR reaction. The resulted clone is manipulated to carry the ECE regulatory element. The resulted altered fragment is closed into rice-transformation vector containing the wHMWG promoter and NOS terminator. The vector also contains the hygromycin resistance gene under the control of the CaMV 35S promoter. The vector is transferred into Agrobacterium tumefaciens AGL1. […]
RNA is extracted from rice grains, 10 days post anthesis. cDNA is synthesized from 5 μg of total RNA using cDNA syntheses kit. Quantitative real-time PCR is conducted on 100 ng of cDNA using the SBEIIb primers.
Protein analysis is conducted on soluble native proteins extracted from rice grains obtained 10 days post anthesis. […] Signals are recorded by automatic film processor.
Mature panicles are analyzed for their starch content. Fully developed and mature seeds are collected, weighed, dried and ground and total starch is determined using Total Starch HK Assay (Megazyme) and resistant starch is determined using Resistant Starch Assay Kit (Megazyme).

[3] = test system: Nicotiana benthamiana leaf discs transformed with Pzp 1503/syz24-1.2 plasmid (GUS + the mutated ECE); assay: GUS reporter expression in tobacco leaf discs (β-glucuronidase assay); format: cell-based; details: MS buffer with 50 μM BENZ
Protocol: Protocol 5 ml Agrobacterium starter (transfected with the relevant plasmids) were grown with the selection antibiotics at 28° C. with agitation of 350 rpm overnight. Thereafter, the solution was centrifuged for 5 min. at 4500 g. The pellet was resuspended in 10 ml Induction Medium supplemented with the relevant antibiotic and 100 μM Acetosyringone, incubated for 5-6 hours at 28° C., 250 rpm and then centrifuged for 5 min at 4500 g. The bacteria were resuspended in 10 ml Infiltration Medium supplemented with 200 μM Acetosyringone (1M in DMSO). The bacteria density is measured at 660 nm to obtain OD660=1.
Leaf discs were cut from Nicotiana Benthamiana plants and put in 24 wells with 400 μl of the relevant Agrobacterium with or without 50 μM BENZ. Vacuum was applied for 8 min and then slowly released, followed by additional vacuum cycle of 1 min and slow release and incubation for 10 min. The leaf discs were then separated from the Agrobacterium suspension and resuspended with MS buffer with or without 50 μM BENZ and incubated at 24° C. for three days. At the end of the incubation, the leaf discs were subjected to β-glucuronidase (GUS) assay.
β-Glucuronidase (GUS) Assay
• 1. […]

[4] = test system: Arabidopsis thaliana protoplasts transformed with syz24-2.1 plasmid comprising the ECE within the GUS intron; assay: GUS reporter expression in Arabidopsis thaliana protoplasts (ECE within GUS intron); format: cell-based
Protocol: Arabidopsis protoplasts were prepared as previously described (Wu F-H et al. 2009. Plant methods 5:16 doi: 10.1186/1746-4811-5-16). Plasmids syz24-2.1 and a control plasmid 5060 (constitutive GUS expression) were transformed (in the presence or without 10 μM BENZ (BZ-CAS 121749-39-1-BZ) into protoplasts (Wu et al., supra). Transfected protoplasts were washed and cultured in W5 solution with or without BENZ (BZ) in 1% bovine serum albumin-coated 15 ml tubes for 16 h at 28° C. to allow expression of the transfected DNA. The GUS expression system enables detection of a functional β-glucuronidase when protoplasts expressing the gene are incubated with the enzyme substrate 5-bromo-4-chloro-3-indolyl glucuronide (X-Glu), where the product of the reaction is a clear blue color. As described hereinabove, the expression system of the invention was introduced into an intron within the GUS encoding gene. […] The following assays were designed: • 1. Non transformed protoplasts • 2. Non transformed protoplasts exposed to 10 μM BENZ • 3. Non transformed protoplasts exposed to 100 μM BENZ • 4. Protoplast transformed with plasmid syz24-2.1 without exposure to BENZ • 5. Protoplast transformed with plasmid syz24-2.1 exposed to 10 μM BENZ • 6. Protoplast transformed with plasmid syz24-2.1 exposed to 100 μM BENZ • 7. Protoplast transformed with plasmid 5060 without exposure to BENZ • 8. Protoplast transformed with plasmid 5060 exposed to 10 μM BENZ • 9. Protoplast transformed with plasmid 5060 exposed to 100 μM BENZ In all assays in which the transformed protoplasts were exposed to BENZ, the transformation and subsequent washes were performed in the presence of the corresponding BENZ concentration (10 or 100 μM). After the last wash, the protoplasts were suspended in W5 buffer containing 10 μM or 100 μM BENZ and placed at 28° C. for 48 h. Thereafter the protoplasts were collected (by spinning at 100gX3 minutes). Protoplasts were resuspended in 0.5 ml 0.5M monitol+0.5 mg X-glucuronide (sigma B5285) and incubated at 37° C. 24 h.

[5] = test system: F293 cells transfected with the ECE-CAS9 plasmid; assay: CAS activity in F293 cells transfected with ECE-CAS9 plasmid (Bpu10I cut/uncut ratio); format: cell-based; details: DMEM supplemented with 10 μM BENZ, 48 hours
From the text: In one example, the ECE regulatory element of the present invention can be used to determine the expression level of the CRISPR-CAS9 complex (Gene Bank Accession No. KF264451) allowing timely editing of the genome. The viral (Px330) CRISPER CAS system can be acquired from “addgene” (plasmid #117919). The ECE regulatory element is synthesized with the sequence of the BseRI restriction site to produce an expression system of the invention having SEQ ID NO:51, and then to be inserted into the 117919 plasmid (SEQ ID NO:57). The ECE sequence is located within the artificial hybrid intron, known to increase transcription levels.
Plasmid was transfected in to F293 cells by Lipofectamine 3000 (L3000015 ThermoFisher) according to the manufacturer instructions. Immediately following transfection cells were incubated with either DMEM or DMEM supplemented with BENZ for 48 hours.
The sgRNA is designed to target the cyclin D1 gene (Accession BC023620) at the Bpu 10I restriction site (sgRNA=[…], SEQ ID NO:60). The efficiency of the CRISPER assay is determined by extracting the DNA, digesting it with Bpu10I and measuring, by bioanalyser, the ratio between the cut and uncut fragments, uncut indicates an efficient CAS activity.

[6] = test system: hpt gene with ECE in transgenic tobacco seedlings; assay: Conditional expression of hygromycin resistance (hpt) gene with ECE in transgenic tobacco; format: in vivo; details: MS media versus MS+20 μM BENZ, seven days
From the text: Expression of selection genes is required only during early stages of plant transformation. Following the establishment of a transgenic plant, expression of the selection gene is not required. The hpt gene, conferring resistance to hygromycin, is generated by standard PCR reaction on the pBIGHYG plasmid (binary plasmid) and cloned into pTA vector. The ECE regulatory element is inserted into the hpt gene just after the its ATG start codon by standard Gibson assembly. In addition, the reporting gene GUS: B-glucuronidase is cloned into the pTA vector downstream to the hpt gene under the 35S promoter.
The vector is transferred into Agrobacterium tumefaciens EHAP105.
Tobacco genetic transformation is carried using hygromycin as for selection using a standard transformation protocol. 20 μM BENZ is added to the regeneration and selection medium to facilitate the expression of the selection gene. […] Seeds of heterozygous plants with single insert are selected.
Ten days following planting plants transformed to either MS-based media or remained on MS+20 μM BENZ media. Seven day after, RNA is extracted from transgenic plants. cDNA is synthesized from 20 μg of total RNA using cDNA syntheses kit. Quantitative real-time PCR is conducted on 100 ng of cDNA using the hygromycin-encoding gene primers.

[7] = test system: CCR5 expression in ECE included PBMC cells; details: 50 μM spermin
Protocol: Plasmid is transfected in to PBMC cells using standard protocol (lipofectamine) and selected for ECE insertion using NGS analyses. Cells are incubated in CTS™ OpTmizer™ (ThermoFisher A3705001) with or without 50 μM spermin. Cells are then stained with CCR5 antibody (BioLegend 359105) and passed through flow cytometry column to detect the level of CCR5 expression.

Row | SMILES | lignin levels [1] | SBEIIb protein (Western blot) [2] | β-glucuronidase activity (blue color) ([3]; leaf discs transformed with Pzp 1503/syz24-1.2, three days) | β-glucuronidase activity (blue color) ([3]; leaf discs transformed with control plasmid (constitutive GUS)) | β-glucuronidase activity (blue color) ([4]; non-transformed protoplasts, 10 μM or 100 μM BENZ) | β-glucuronidase activity (blue color) ([4]; protoplasts transformed with control plasmid 5060 (constitutive GUS), 10 μM or 100 μM BENZ) | β-glucuronidase activity (blue color) ([4]; protoplasts transformed with syz24-2.1, W5 supplemented with 10 μM BENZ) | β-glucuronidase activity (blue color) ([4]; protoplasts transformed with syz24-2.1, W5 supplemented with 100 μM BENZ) | CAS activity (increase of uncut fragments) [5] | expression of hygromycin-encoding gene (quantitative real-time PCR) [6] | CCR5 expression [7]
1 | CCNCCCNCCCNCCCNCC [BENZ, N^1,N^11-Diethylnorspermine tetrahydrochloride] | expected to be comparable to transgenic plants, and lower than wild type plants | increase in SBEIIb | showed β-glucuronidase activity | expressed β-glucuronidase activity | not observed | β-glucuronidase activity irrespective of the presence of BENZ | only when cells were incubated with W5 supplemented with 100 μM BENZ | showed β-glucuronidase activity | increase in CAS activity | reduced in the transgenic seedlings when grown on MS media compared to seedling that grow on MS+20 μM BENZ | 
2 | NCCCNCCCCNCCCN [spermin, spermine] |  |  |  |  |  |  |  |  |  |  | expected to increase
